Test results reported in ChEMBL document CHEMBL5705884, “Breaching the DNA damage checkpoint via PF-00477736, a novel small-molecule inhibitor of checkpoint kinase 1” (Mol Cancer Ther, 2008).
Calls of active or inactive are those of the source. The rule behind the calls is not given here.

Key:
HT-29 [1] = assay: Potentiation of gemcitabine induced cytotoxicity in human HT-29 cells assessed as cell survival at 180 nM measured after 4 to 48 hrs by coulter counter method relative to gemcitabine alone; assay type: functional; conditions: time 4-48 hrs, read-out: Activity
[2] = AUC (0 to infinity) in nu/nu mouse at 40 mg/kg, ip by LCMS analysis; assay type: ADME, organism-based; conditions: in vivo
COLO 205 [3] = assay: Antitumor activity against human COLO 205 cells xenografted in athymic nude mouse model assessed as tumor growth inhibition at 30 mg/kg, ip administered once daily in presence of gemcitabine (Gemcitabine alone = 40%); assay type: functional; conditions: read-out: TGI
COLO 205 [4] = assay: Antitumor activity against human COLO 205 cells xenografted in athymic nude mouse model assessed as potentiated tumor growth inhibition at 12 mg/kg, ip administered once daily in presence of gemcitabine relative to control; assay type: functional; conditions: read-out: TGI
HT-29 [5] = assay: Potentiation factor, ratio of IC50 for human HT-29 cells to IC50 for human HT-29 cells in presence of carboplatin; assay type: functional
[6] = Toxicity in athymic nude mouse assessed as effect on body weight at 4 to 20 mg/kg, ip administered twice daily in presence of gemcitabine; assay type: organism-based; conditions: in vivo, dose 4-20 mg/kg
COLO 205 [7] = assay: Antitumor activity against human COLO 205 cells xenografted in athymic nude mouse model assessed as tumor growth delay by measuring test to control tumor ratio at 4 mg/kg, ip administered twice daily in presence of gemcitabine (Gemcitabine alone= 8%); assay type: functional
[8] = molecular target: Cyclin-dependent kinase 1 (Homo sapiens, UniProt P06493); assay: Binding affinity to CDK1 (unknown origin) assessed as inhibition constant
MDA-MB-231 [9] = assay: Potentiation factor, ratio of IC50 for human MDA-MB-231 cells to IC50 for human MDA-MB-231 cells in presence of doxorubicin; assay type: functional
[10] = Volume of distribution at steady state in Sprague-Dawley rat at 4 mg/kg, iv administered as bolus dose by LCMS analysis; assay type: ADME, organism-based; conditions: in vivo, read-out: Vdss
COLO 205 [11] = assay: Antitumor activity against human COLO 205 cells xenografted in athymic nude mouse model assessed as tumor growth delay by measuring test to control tumor ratio at 15 mg/kg, ip administered once daily in presence of gemcitabine (Gemcitabine alone = 3%); assay type: functional
[12] = molecular target: Tyrosine-protein kinase Yes (Homo sapiens, UniProt P07947); assay: Inhibition of Yes (unknown origin)
[13] = AUC (0 to infinity) in nu/nu mouse at 4 mg/kg, ip by LCMS analysis; assay type: ADME, organism-based; conditions: in vivo
CA46 [14] = assay: Inhibition of camptothecin induced DNA damage in p-53 mutated human CA46 cells assessed as G2 checkpoint abrogation at 0.001 to 1 uM measured after 16 hrs presence of nocodazole by dot blot assay; assay type: functional, cell-based; conditions: dose 0.001-1 µM
[15] = Cmax in nu/nu mouse at 40 mg/kg, ip by LCMS analysis; assay type: ADME, organism-based; conditions: in vivo
COLO 205 [16] = assay: Antitumor activity against human COLO 205 cells xenografted in athymic nude mouse model assessed as potentiated tumor growth inhibition at 4 mg/kg, ip administered twice daily in presence of gemcitabine relative to control; assay type: functional; conditions: read-out: TGI
COLO 205 [17] = assay: Antitumor activity against human COLO 205 cells xenografted in athymic nude mouse model assessed as tumor growth inhibition at 20 mg/kg, ip administered once daily in presence of gemcitabine (Gemcitabine alone= 58%); assay type: functional; conditions: read-out: TGI
[18] = Toxicity in athymic nude mouse assessed as effect on body weight at 4 to 20 mg/kg, ip administered once daily in presence of gemcitabine; assay type: organism-based; conditions: in vivo, dose 4-20 mg/kg
COLO 205 [19] = assay: Antitumor activity against human COLO 205 cells xenografted in athymic nude mouse model assessed as gross log cell kill at 7.5 mg/kg, ip administered twice daily in presence of gemcitabine (Gemcitabine alone = 0.27%); assay type: functional
CA46 [20] = assay: Inhibition of camptothecin induced DNA damage in mutated human CA46 cells assessed as increase in mitotic index by measuring histone H3 phosphorylation at S10 residue at 0.001 to 1 uM measured after 16 hrs presence of nocodazole by dot blot assay; assay type: functional, cell-based; conditions: CA46, 16 h
[21] = molecular target: Fibroblast growth factor receptor 3 (Homo sapiens, UniProt P22607); assay: Inhibition of FGFR3 (unknown origin)
COLO 205 [22] = assay: Antitumor activity against human COLO 205 cells xenografted in athymic nude mouse model assessed as gross log cell kill at 30 mg/kg, ip administered once daily in presence of gemcitabine (Gemcitabine alone = 0.27%); assay type: functional
COLO 205 [23] = assay: Antitumor activity against human COLO 205 cells xenografted in athymic nude mouse model assessed as potentiated tumor growth inhibition at 20 mg/kg, ip administered once daily in presence of gemcitabine relative to control; assay type: functional; conditions: read-out: TGI
MDA-MB-231 [24] = assay: Antiproliferative activity against human MDA-MB-231 cells deficit of p53 expression assessed as inhibition of cell growth measured after 96 hrs by MTT assay; assay type: functional, cell-based; conditions: MDA-MB-231, 96 h
HT-29 [25] = assay: Inhibition of gemcitabine induced cell cycle arrest in human HT-29 cells assessed as disappearance of cyclin B level at 360 nM measured after 24 hrs by immunoblot analysis relative to control; assay type: functional
COLO 205 [26] = assay: Antitumor activity against human COLO 205 cells xenografted in athymic nude mouse model assessed as potentiated tumor growth inhibition at 30 mg/kg, ip administered once daily in presence of gemcitabine relative to control; assay type: functional; conditions: read-out: TGI
HT-29 [27] = assay: Potentiation factor, ratio of IC50 for human HT-29 cells to IC50 for human HT-29 cells in presence of SN-38; assay type: functional
COLO 205 [28] = assay: Antitumor activity against human COLO 205 cells xenografted in athymic nude mouse model assessed as gross log cell kill at 30 mg/kg, ip administered twice daily in presence of gemcitabine (Gemcitabine alone = 0.27%); assay type: functional
COLO 205 [29] = assay: Antitumor activity against human COLO 205 cells xenografted in athymic nude mouse model assessed as gross log cell kill at 20 mg/kg, ip administered once daily in presence of gemcitabine (Gemcitabine alone = 0.5%); assay type: functional
PC-3 = assay: Potentiation factor, ratio of IC50 for human PC-3 cells to IC50 for human PC-3 cells in presence of gemcitabine; assay type: functional
COLO 205 [30] = assay: Antitumor activity against human COLO 205 cells xenografted in athymic nude mouse model assessed as tumor growth delay by measuring test to control tumor ratio at 20 mg/kg, ip administered once daily in presence of gemcitabine (Gemcitabine alone= 8%); assay type: functional
[31] = AUC (0 to infinity) in Sprague-Dawley rat at 4 mg/kg, iv administered as bolus dose by LCMS analysis; assay type: ADME, organism-based; conditions: in vivo
COLO 205 [32] = assay: Antitumor activity against human COLO 205 cells xenografted in athymic nude mouse model assessed as potentiated tumor growth inhibition at 15 mg/kg, ip administered once daily in presence of gemcitabine relative to control; assay type: functional; conditions: read-out: TGI
K562 = assay: Potentiation factor, ratio of IC50 for human K562 cells to IC50 for human K562 cells in presence of gemcitabine; assay type: functional
COLO 205 [33] = assay: Potentiation factor, ratio of IC50 for human COLO 205 cells to IC50 for human COLO 205 cells in presence of SN-38; assay type: functional
HT-29 [34] = assay: Potentiation of gemcitabine induced cytotoxicity in human HT-29 cells assessed as cell survival at 360 nM measured after 4 to 48 hrs by coulter counter method relative to gemcitabine alone; assay type: functional; conditions: time 4-48 hrs, read-out: Activity

Sequence of Cyclin-dependent kinase 1 (P06493 whole entry): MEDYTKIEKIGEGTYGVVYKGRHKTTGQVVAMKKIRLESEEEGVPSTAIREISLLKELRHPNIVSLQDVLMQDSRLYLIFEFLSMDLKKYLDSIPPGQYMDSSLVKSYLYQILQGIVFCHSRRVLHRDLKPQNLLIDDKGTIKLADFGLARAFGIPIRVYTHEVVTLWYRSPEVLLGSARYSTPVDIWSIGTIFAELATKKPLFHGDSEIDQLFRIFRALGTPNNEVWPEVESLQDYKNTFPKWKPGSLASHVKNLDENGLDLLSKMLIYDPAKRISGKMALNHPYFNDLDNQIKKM
Sequence of Fibroblast growth factor receptor 3 (P22607 whole entry): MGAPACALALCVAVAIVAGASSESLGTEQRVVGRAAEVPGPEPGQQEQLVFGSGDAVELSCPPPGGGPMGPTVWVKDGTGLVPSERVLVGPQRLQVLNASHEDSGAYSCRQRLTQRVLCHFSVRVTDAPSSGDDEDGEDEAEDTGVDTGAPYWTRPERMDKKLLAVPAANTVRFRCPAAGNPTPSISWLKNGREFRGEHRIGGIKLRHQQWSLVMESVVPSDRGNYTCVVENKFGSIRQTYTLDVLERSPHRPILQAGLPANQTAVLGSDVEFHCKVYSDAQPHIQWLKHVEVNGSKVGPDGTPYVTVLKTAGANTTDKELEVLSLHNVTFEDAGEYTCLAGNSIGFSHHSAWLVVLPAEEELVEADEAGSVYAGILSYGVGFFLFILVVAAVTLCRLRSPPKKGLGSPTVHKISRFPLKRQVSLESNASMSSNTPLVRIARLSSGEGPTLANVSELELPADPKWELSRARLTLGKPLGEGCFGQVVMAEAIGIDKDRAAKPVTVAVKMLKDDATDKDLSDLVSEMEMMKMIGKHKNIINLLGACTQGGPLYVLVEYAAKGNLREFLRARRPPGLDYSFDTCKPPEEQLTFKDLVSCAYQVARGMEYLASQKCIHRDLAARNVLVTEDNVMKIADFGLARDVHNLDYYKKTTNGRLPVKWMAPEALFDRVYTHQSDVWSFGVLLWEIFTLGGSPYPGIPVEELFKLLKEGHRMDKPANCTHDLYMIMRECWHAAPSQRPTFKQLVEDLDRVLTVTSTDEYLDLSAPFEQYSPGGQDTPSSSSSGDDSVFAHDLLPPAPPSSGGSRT
Sequence of Tyrosine-protein kinase Yes (P07947 whole entry): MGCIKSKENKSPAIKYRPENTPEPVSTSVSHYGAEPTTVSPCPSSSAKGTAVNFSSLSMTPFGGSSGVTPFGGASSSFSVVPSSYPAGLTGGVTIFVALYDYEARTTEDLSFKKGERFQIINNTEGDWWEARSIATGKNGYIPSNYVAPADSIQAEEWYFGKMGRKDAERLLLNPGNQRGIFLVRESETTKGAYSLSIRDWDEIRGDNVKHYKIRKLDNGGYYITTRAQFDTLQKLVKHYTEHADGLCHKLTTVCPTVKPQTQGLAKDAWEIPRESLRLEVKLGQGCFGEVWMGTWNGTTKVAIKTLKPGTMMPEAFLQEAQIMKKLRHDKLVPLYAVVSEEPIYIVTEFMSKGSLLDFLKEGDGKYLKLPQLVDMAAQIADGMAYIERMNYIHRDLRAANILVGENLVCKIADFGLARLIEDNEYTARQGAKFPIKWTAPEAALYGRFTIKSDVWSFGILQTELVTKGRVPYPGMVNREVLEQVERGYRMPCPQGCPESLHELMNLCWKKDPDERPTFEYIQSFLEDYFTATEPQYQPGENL

Compound: Cn1cc(-c2[nH]c3cc(NC(=O)[C@H](N)C4CCCCC4)cc4c3c2C=NNC4=O)cn1
- viability at 0.18 µM (HT-29 [1]): 75%
- AUC(0-inf) [2]: 25800 ng·h/mL
- inhibition in vivo at 30 mg/kg (COLO 205 [3]): 64%
- inhibition in vivo at 12 mg/kg (COLO 205 [4]): 23%
- PF50 (HT-29 [5]): 3
- Activity [6]: Non-Toxic
- T/C (COLO 205 [7]): 8
- Ki [8]: 9.9 nM
- PF50 (MDA-MB-231 [9]): 2.25
- Vd [10]: 0.7 L/kg
- T/C (COLO 205 [11]): 7.75
- IC50 [12]: 29 nM
- AUC(0-inf) [13]: 490 ng·h/mL
- inhibition (CA46 [14]): Active
- Cmax [15]: 6780 ng/mL
- inhibition in vivo at 4 mg/kg (COLO 205 [16]): 12%
- inhibition in vivo at 20 mg/kg (COLO 205 [17]): 76%
- Activity [18]: Non-Toxic
- LCK (COLO 205 [19]): 1.21
- EC50 (CA46 [20]): 45 nM
- IC50 [21]: 47 nM
- LCK (COLO 205 [22]): 0.66
- inhibition in vivo at 20 mg/kg (COLO 205 [23]): 43%
- IC50 (MDA-MB-231 [24]): 1400 nM
- inhibition at 0.36 µM (HT-29 [25]): 100%
- inhibition in vivo at 30 mg/kg (COLO 205 [26]): 41%
- PF50 (HT-29 [27]): 3.7
- LCK (COLO 205 [28]): 0.89
- LCK (COLO 205 [29]): 0.75
- PF50 (PC-3): 12.2
- T/C (COLO 205 [30]): 12
- AUC(0-inf) [31]: 5720 ng·h/mL
- inhibition in vivo at 15 mg/kg (COLO 205 [32]): 45%
- PF50 (K562): 5.6
- PF50 (COLO 205 [33]): 2.1
- viability at 0.36 µM (HT-29 [34]): 71%
